In US12247022B2, “Combinations for treatment of NASH/NAFLD and related diseases” (Pfizer Inc., priority 2018, dated 2025):

Tests used:
Type in all cases: in vivo, rat
[1] = tested on: Western diet fed Sprague Dawley rats; assay: Fed plasma triglyceride (TG), Western diet fed rats, oral dosing; conditions: 2 hours post dose; for increase in plasma TG in the fed state, relative to vehicle-administered Western diet fed rats: oral monotherapy; for reduction of plasma TG in the fed state, relative to vehicle-administered Western diet fed rats: oral
Protocol: (§1) A randomized, vehicle-controlled, 8-parallel arm study was conducted in male Sprague-Dawley rats (Charles River (Boston, MA)) to obtain circulating and hepatic TG levels. Standard laboratory conditions were used to house 96 rats (˜200 g); they were double housed and kept under 12:12-hour reverse light-dark schedule (lights off at 8:00 AM). Rats were randomized into chow or Western diet groups and dose groups upon arrival and were given a 14-day lead-in period on either standard rat chow or Western diet prior to the start of the study. Standard Laboratory Rodent chow diet, 5053, was from LabDiet (PMI, St Louis, Missouri). Western Diet, D12079Bi, was from Research Diets (New Brunswick, New Jersey).
For these studies, vehicle was prepared to make a 0.5% (wt/volume) of methyl cellulose (MC, Sigma Aldrich; 274429) in deionized water. The stock solutions with either Compound A (prepared from the tris salt) or Compound D were prepared with the respective compound to provide a concentration such that 10 ml of the solution would deliver the desired mg/kg dosage amount, where the average weight of the rats used was about 200 g.
Starting on Day 1 of the study, rats were dosed orally (10 mL/kg) with either vehicle control (0.5% MC (wt/volume %) in dionized water), low or high doses of Compound A (1 mg/kg or 10 mg/kg QD, respectively), low or high doses of Compound D (5 mg/kg or 30 mg/kg BID respectively), or co-administration of low doses (Compound A at 1 mg/kg QD and Compound D at 5 mg/kg BID), or co-administration of high doses (Compound A at 10 mg/kg QD and Compound D at 30 mg/kg BID)
Fed plasma analytes: Blood for determining fed plasma TG concentrations was collected 2 hours post dose (2 hours into the dark cycle) via lateral tail vein, transferred to BD Microtainer tubes coated with dipotassium ethylenediaminetetraacetic acid (K2EDTA) (PN365974), and centrifuged at 4° C. The resulting plasma samples were then analyzed on a Siemens Chemistry XPT clinical analyzer (Malven, PA) using Siemens triglycerides_2 assay reagents (ref 10335892).

[2] = tested on: SREBP-1; assay: Nuclear SREBP-1 localization in liver (Western blot, normalized to Histone 2B), Western diet fed rats; conditions: high dose (Compound A 10 mg/kg QD, Compound D 30 mg/kg BID); pooled liver samples per group
Protocol: as §1, with “Jersey). […]” for “Jersey).”
Nuclear and Membrane fractions were prepared by ultracentrifugation using standard methods from a portion of the pulverized liver samples, that were pooled per treatment group. Samples from the nuclear extract and the membrane fractions were analyzed by Western blotting for SREBP1. […] Nuclear SREBP1 levels were quantified using relative units and normalized to Histone 2B to control for sample loss during the nuclear fractionation and gel loading.

[3] = tested on: acetyl-CoA carboxylase (ACC1); assay: Hepatic lipogenic gene expression (qPCR), Western diet fed rats: ACC1; conditions: Actb housekeeping gene, Day 28 liver
Protocol: as §1
Starting on Day 1 of the study, rats were dosed orally (10 mL/kg) with either vehicle control (0.5% MC (wt/volume %) in dionized water), low or high doses of Compound A (1 mg/kg or 10 mg/kg QD, respectively), low or high doses of Compound D (5 mg/kg or 30 mg/kg BID respectively), or co-administration of low doses (Compound A at 1 mg/kg QD and Compound D at 5 mg/kg BID), or co-administration of high doses (Compound A at 10 mg/kg QD and Compound D at 30 mg/kg BID) […]
Another portion of the pulverized liver was processed and analyzed for lipogenic gene expression. Rat taqman probes against ACC1, FASN, SCD1, PCSK9 and SREBP-1c were all assessed using Actb as housekeeping gene on qPCR.

[4] = tested on: CDAHFD fed Male Wistar Hann rats; assay: Liver stiffness by shearwave elastography, CDAHFD fed rats; conditions: twice daily for 6 weeks, Compound A 5 mg/kg, Compound D 30 mg/kg, or co-administration
Protocol: (§2) A randomized, vehicle-controlled, 5-parallel arm study was conducted in male Wistar-Han rats (Charles River (Boston, MA)) fed a choline-deficient and high fat diet (CDAHFD) (Research diets; A16092003) to identify differences in improvements in markers of hepatic inflammation and fibrosis when administering either Compound A or Compound D alone as monotherapy or in combination. Standard laboratory conditions were used to house 60 rats (˜200 g); they were double housed and kept under 12:12-hour reverse light-dark schedule (lights off at 8:00 AM). Rats were fed choline deficient and high fat diet (CDAHFD) beginning 6-weeks prior to initiation of the study. Rats, randomized into 4 dosing groups (n=12/group), received twice daily administration of vehicle, Compound A (5 mg/kg) monotherapy, Compound D (30 mg/kg) monotherapy, or co-administration Compound A (5 mg/kg) and Compound D (30 mg/kg) for a period of 6-weeks. Animals (n=12) remaining on normal chow throughout the study and administered twice-daily vehicle were used as a control group. Blood samples were collected prior to starting compound administration and 3- and 6-week post compound administration for the assessment of circulating markers. […] Histology was assessed following 6-weeks of drug administration which corresponded to 12 weeks on the CDAHFD. […]

[5] = tested on: Collagen; assay: Hepatic Picrosirius red staining (collagen), CDAHFD fed rats; conditions: twice daily for 6 weeks; Compound A 5 mg/kg, Compound D 30 mg/kg, or co-administration; 12 weeks on CDAHFD
Protocol: as §2, with “6-weeks.” for “6-weeks. Animals (n=12) remaining on normal chow throughout the study and administered twice-daily vehicle were used as a control group. Blood samples were collected prior to starting compound administration and 3- and 6-week post compound administration for the assessment of circulating markers.”
Following the 12-weeks on CDAHFD, the animals were sacrificed by CO2 asphyxiation. […] A portion of the pulverized liver sample from each animal was processed and analyzed for gene expression markers of fibrogenesis. Rat taqman probes against […]SMA and COL1A1 were all assessed using Actb as housekeeping gene on qPCR. […]

Structure (SMILES)	increase in plasma TG in the fed state, relative to vehicle-administered Western diet fed rats ([1]; high dose (Compound A 10 mg/kg QD)) [fold]	increase in plasma TG in the fed state, relative to vehicle-administered Western diet fed rats ([1]; low dose (Compound A 1 mg/kg QD)) [fold]	nuclear localization of SREBP-1, relative to vehicle treated Western diet fed rats [2]	hepatic ACC1 gene expression relative to Western Diet fed and vehicle treated animals [3]	liver stiffness (shearwave elastography, kPa) [4]	reduction of Picosrius red (PSR) staining [5] [%]	reduction of plasma TG in the fed state, relative to vehicle-administered Western diet fed rats ([1]; high dose (Compound D 30 mg/kg BID; co-administration: Compound A 10 mg/kg QD and Compound D 30 mg/kg BID)) [%]	reduction of plasma TG in the fed state, relative to vehicle-administered Western diet fed rats ([1]; low dose (Compound D 5 mg/kg BID; co-administration: Compound A 1 mg/kg QD and Compound D 5 mg/kg BID)) [%]
COc1cc(C(=O)N2CCC3(CC2)CC(=O)c2c(cnn2C(C)C)C3)cc(-c2ccc(C(=O)O)cc2)n1 [Compound A, 4-(4-(1-isopropyl-7-oxo-1,4,6,7-tetrahydrospiro[indazole-5,4′-piperidine]-1′-carbonyl)-6-methoxypyridin-2-yl)benzoic acid]	1.3	1.7	increased nuclear localization of SREBP-1	trended to further increase	reduced liver stiffness	26	–	–
CCOc1cccnc1Oc1cncc(-c2ncc(C(=O)N[C@H]3CCOC3)cn2)c1 [Compound D, (S)-2-(5-((3-ethoxypyridin-2-yl)oxy)pyridin-3-yl)-N-(tetrahydrofuran-3-yl)pyrimidine-5-carboxamide]	–	–	reduced SREBP-1 nuclear localization	decreased expression	reduced liver stiffness	20	63	55
